# Reference: the supplement of paper PMC10307832
# Columns and labels:
# Experiment in all cases: relative viability (nuclei count vs DMSO), 5 days (fraction); higher = more cells survive
# XMD8-85 + OSI-027 = compound: CN1CCN(CC1)C2=CC(=C(C=C2)NC3=NC=C4C(=N3)N(C5=CC=CC=C5C(=O)N4C)C)OC [XMD8-85] + COc1cccc2cc(-c3nc([C@H]4CC[C@H](C(=O)O)CC4)n4ncnc(N)c34)[nH]c12 [OSI-027] (partner 0.5 µM)
# In short: (§1)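 Relative viability is defined as nuclei in treated wells over nuclei in vehicle wells. Duplicate plates were run and medians reported. Lung cancer cell lines in 1536-well plates were dosed by pin tool one day after seeding, with one drug or with a fixed anchor-drug dose plus five library-drug doses (not always all listed) in √10 steps, and nuclei were counted after 5 days.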
# XMD8-85 = compound: CN1CCN(CC1)C2=CC(=C(C=C2)NC3=NC=C4C(=N3)N(C5=CC=CC=C5C(=O)N4C)C)OC [XMD8-85]
# In short: (§2)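 After an overnight hold at 37 °C, lung cancer cell lines in 1536-well plates were pinned with five library-drug doses (not always all listed), each √10 from the next, on vehicle-anchored plates. The cells stayed 5 days without fresh medium, then a one-step fix, permeabilisation and Hoechst stain preceded 4× imaging and MetaXpress nuclear counts. A plate passed only with control CV under 25% and at least one doubling. Viability is the median, over plates, of treated-well nuclei relative to vehicle-well nuclei.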
# 4EGI-1 = compound: O=C(O)C(Cc1ccccc1[N+](=O)[O-])=NNc1nc(-c2ccc(Cl)c(Cl)c2)cs1 (mixture of isomers) [4EGI-1]
# In short: as §2
# 4EGI-1 + Pemetrexed = compound: O=C(O)C(Cc1ccccc1[N+](=O)[O-])=NNc1nc(-c2ccc(Cl)c(Cl)c2)cs1 (mixture of isomers) [4EGI-1] + Nc1nc2[nH]cc(CCc3ccc(C(=O)N[C@@H](CCC(=O)O)C(=O)O)cc3)c2c(=O)[nH]1 [Pemetrexed] (partner 0.2 µM)
# In short: as §1
Cell Line,relative viability (XMD8-85 + OSI-027; first compound 0.08 µM),relative viability (XMD8-85 + OSI-027; first compound 0.253 µM),relative viability (XMD8-85 + OSI-027; first compound 0.8 µM),relative viability (XMD8-85 + OSI-027; first compound 2.53 µM),relative viability (XMD8-85 + OSI-027; first compound 8 µM),relative viability (XMD8-85; 0.08 µM),relative viability (XMD8-85; 0.253 µM),relative viability (XMD8-85; 0.8 µM),relative viability (XMD8-85; 2.53 µM),relative viability (XMD8-85; 8 µM),relative viability (4EGI-1; 0.5 µM),relative viability (4EGI-1; 1.581 µM),relative viability (4EGI-1; 5 µM),relative viability (4EGI-1; 15.81 µM),relative viability (4EGI-1; 50 µM),relative viability (4EGI-1 + Pemetrexed; first compound 0.5 µM),relative viability (4EGI-1 + Pemetrexed; first compound 1.581 µM),relative viability (4EGI-1 + Pemetrexed; first compound 5 µM),relative viability (4EGI-1 + Pemetrexed; first compound 15.81 µM),relative viability (4EGI-1 + Pemetrexed; first compound 50 µM)
NCI-H727,0.631,0.772,0.705,0.535,0.359,0.883,0.9,0.958,0.713,0.62,1.06,0.991,0.909,0.795,0.59,–,–,–,–,–
LCLC-103H,0.428,0.441,0.487,–,0.404,0.929,1.03,1.05,1.04,0.88,1.01,0.929,1.01,0.972,0.696,0.443,0.409,0.474,0.435,0.477
ABC-1,0.473,0.296,0.546,0.526,0.41,0.879,0.87,1.17,0.952,0.517,1.08,0.819,1.1,0.525,0.195,–,–,–,–,–
NCI-H3122,0.867,1.02,1.34,1.08,0.532,1.09,0.965,1.08,0.972,0.967,0.987,0.918,0.969,0.964,0.683,0.196,0.192,0.189,0.224,0.175
NCI-H1648,0.248,0.268,–,–,0.228,0.827,0.73,0.7,0.829,0.869,0.831,0.958,0.968,0.808,0.509,0.728,0.782,0.745,0.643,0.689
NCI-H1703,–,–,–,–,–,0.934,1.06,1.06,0.967,0.822,1.34,1.08,1.12,0.928,0.571,–,–,–,–,–
HOP-62,0.806,0.867,0.842,0.845,0.436,1.08,1.06,0.952,1.01,–,1.02,–,1.02,0.999,0.744,0.342,0.389,0.362,0.311,0.318
NCI-H2405,0.6,0.645,0.604,0.598,0.631,1.02,1.06,1.06,1.01,0.781,1.04,0.819,1.08,1.03,0.984,1.1,–,1.3,1.05,0.285
LXF-289,0.758,0.915,0.852,0.936,0.579,0.996,1.05,0.997,1.06,0.979,1.03,1.01,0.98,0.864,0.573,0.874,0.909,0.941,0.804,0.605
NCI-H1355,0.385,0.43,0.403,0.448,0.309,0.995,0.941,1.01,1.13,0.749,1.04,0.93,0.948,0.862,0.566,0.967,0.927,0.99,0.963,0.589
NCI-H596,0.69,0.918,0.773,0.795,–,0.946,0.942,1.03,0.987,0.696,1.19,0.788,1.14,0.954,0.594,0.535,0.458,0.51,0.455,0.43
NCI-H1975,0.53,0.678,0.807,0.762,0.445,0.989,0.92,0.98,0.962,0.638,1.02,0.904,1,0.996,0.768,0.298,0.274,0.287,0.283,0.21
H3255,0.599,0.597,0.611,0.603,0.469,1.1,0.929,0.882,0.916,0.674,1.1,0.784,1.01,0.801,0.981,0.598,0.574,0.524,0.453,0.395
COR-L 105,0.6,–,0.589,0.512,0.324,0.913,0.861,0.836,0.853,0.411,0.91,0.879,0.986,0.644,0.648,1.2,0.996,1.14,0.905,0.98
EBC-1,–,–,–,–,–,0.944,1.06,0.937,0.816,0.386,1.11,1.05,1.11,0.726,0.296,–,–,–,–,–
COR-L23,0.592,–,0.91,0.733,0.597,1.11,1.07,1.06,1.12,0.886,1.08,0.859,1.11,0.771,0.155,0.223,0.189,0.194,0.204,0.215
NCI-H1793,0.317,0.259,0.243,0.286,0.276,0.82,0.906,0.938,1.2,0.825,1.05,0.95,1.31,0.765,0.439,1.09,0.905,1.1,0.659,0.304
NCI-H2085,0.712,0.969,0.697,0.64,0.474,0.945,0.966,0.995,0.935,0.856,1.06,1.01,1.03,0.799,0.663,0.979,0.954,0.915,0.646,0.621

Cell Line,relative viability (XMD8-85 + OSI-027; first compound 0.08 µM),relative viability (XMD8-85 + OSI-027; first compound 0.253 µM),relative viability (XMD8-85 + OSI-027; first compound 0.8 µM),relative viability (XMD8-85 + OSI-027; first compound 2.53 µM),relative viability (XMD8-85 + OSI-027; first compound 8 µM),relative viability (XMD8-85; 0.08 µM),relative viability (XMD8-85; 0.253 µM),relative viability (XMD8-85; 0.8 µM),relative viability (XMD8-85; 2.53 µM),relative viability (XMD8-85; 8 µM),relative viability (4EGI-1; 0.5 µM),relative viability (4EGI-1; 1.581 µM),relative viability (4EGI-1; 5 µM),relative viability (4EGI-1; 15.81 µM),relative viability (4EGI-1; 50 µM),relative viability (4EGI-1 + Pemetrexed; first compound 0.5 µM),relative viability (4EGI-1 + Pemetrexed; first compound 1.581 µM),relative viability (4EGI-1 + Pemetrexed; first compound 5 µM),relative viability (4EGI-1 + Pemetrexed; first compound 15.81 µM),relative viability (4EGI-1 + Pemetrexed; first compound 50 µM)
SW 900,0.583,0.623,0.581,0.553,0.304,0.791,1.04,0.759,0.861,0.465,1.05,0.755,0.89,0.642,0.213,0.496,0.513,0.485,0.405,0.136
NCI-H520,0.245,0.257,0.232,0.257,0.195,0.99,0.975,1.03,1.04,0.813,1.24,0.952,1.16,0.917,0.64,0.674,0.704,0.677,0.655,0.123
NCI-H358,0.859,0.848,0.887,0.92,0.756,0.881,0.914,0.977,0.984,0.691,1.01,0.767,0.998,0.629,0.16,0.177,0.187,0.178,0.174,0.165
NCI-H1650,0.674,0.47,0.599,0.637,0.357,0.974,0.874,0.946,0.889,0.297,1.12,–,1.03,0.419,0.223,0.369,–,0.412,0.356,0.313
RERF-LC-KJ,0.684,0.504,0.645,0.577,0.461,0.992,0.939,1.07,1.13,0.82,1.1,0.629,0.936,0.805,0.637,0.51,0.351,0.444,0.457,0.431
LOU-NH91,0.705,0.735,0.672,0.827,–,0.993,0.97,0.939,1.09,0.734,1.02,–,1,0.764,0.751,0.431,–,0.387,0.435,0.481
Calu-6,–,–,–,–,–,1.02,0.962,1.08,0.96,0.834,1.03,0.887,1.1,0.951,0.618,–,–,–,–,–
HCC-15,0.615,0.689,0.669,–,0.541,1.01,1.02,1.08,1.06,0.849,0.982,1.02,1.02,0.947,0.583,0.231,0.22,0.204,0.198,0.212
NCI-H23,0.589,0.692,0.614,0.654,0.409,0.917,0.95,0.982,1,0.72,1.1,–,1.06,1.03,0.298,0.819,–,0.77,0.551,0.274
HCC-78,0.367,0.334,0.391,0.35,0.286,1.14,1.02,0.848,0.92,0.512,1.09,0.739,0.994,0.884,0.872,0.911,–,0.916,0.892,0.972
NCI-H1299,–,–,–,–,–,1.06,1.03,1.01,0.98,0.81,1.02,1.01,1.01,1.03,0.828,–,–,–,–,–
LC-2-ad,0.745,0.859,0.794,0.779,0.613,1.02,0.987,1.03,0.925,0.498,1.06,0.716,0.969,0.526,0.248,0.301,0.28,0.287,0.258,0.257
HCC-44,0.51,0.55,0.46,0.456,0.3,1.02,0.948,–,1.02,0.812,0.999,0.507,0.993,0.877,0.695,0.609,0.634,0.549,0.584,0.593
A549,–,–,–,–,–,0.954,1,1.05,1.05,0.995,1.03,0.792,0.977,0.929,0.369,–,–,–,–,–
HCC-366,0.932,1.15,1.08,0.917,0.794,1.03,1.03,1.07,1,0.938,1.02,0.816,1.02,0.983,0.411,0.154,0.18,0.184,0.147,0.111
IA-LM,–,–,–,–,–,0.84,0.923,0.872,0.723,0.489,1.03,0.848,0.923,0.152,0.0847,–,–,–,–,–
NCI-H1623,0.44,0.395,0.349,0.413,0.368,0.906,0.891,0.88,0.986,0.833,1.17,0.85,1.07,0.783,0.843,–,–,–,–,–
